A melting point compilation (Tetko et al.; mined from patent text by program, amines drawn as free bases though some values may be those of a salt)
Residues, ends and D or L forms follow the SMILES beside them. *: point of attachment. Tos = Cc1ccc(S(=O)(=O)*)cc1

melting point	SMILES
160 to 161 °C	COc1ccc(C(=O)NCC(=O)N2c3ccccc3N(Cc3ccccc3)C(=O)[C@H]3CCC[C@H]32)cc1 (relative stereo)
192 to 193 °C	COc1ccc(-c2cccc3nc(Nc4cc(OC)c(OC)c(OC)c4)oc23)cn1
186 to 189 °C	O=C1Cc2cc(Sc3ccccc3)ncc2N1
221 to 223 °C	O=S(=O)(Nc1nc(O)ncc1F)c1ccccc1
125 to 126 °C	COC(=O)c1cccc(-c2nc(COc3ccc(CCl)cc3OC)c(C)o2)c1
109 to 111 °C	CC(=O)n1nc(C)c(Oc2cc(F)cc(C#N)c2)c1C
170 to 171 °C	CC(C)(C)CC(=O)N1CCN(c2ccc3ncc(Br)n3n2)CC1
114 to 115 °C	COc1ccc(C(=O)[C@H]2CC=CC[C@H]2C(=O)O)cc1OC1CCCC1 (relative stereo)
74 °C	O=C1C=C(C(F)F)C(=O)c2ccccc21
142 °C	O=C(NC(Cc1ccccc1)C(=O)O)OCc1ccc(-c2ccccc2)cc1 (stereo not given)
132 to 133 °C	O=C(CCCc1cnoc1-c1ccccc1)Nc1ccc(-n2ccnc2)cc1
82 °C	O=C(O)CC1=CSCCS1
161 to 163 °C	CCOC(=O)C1=C(C)NC(=O)N(C(=O)OCC)C1c1ccccc1C(F)(F)F (stereo not given)
116 to 118 °C	CCOC(=O)CSc1cc(NS(=O)(=O)c2cccs2)c2ccccc2c1O
170 °C	CN(c1ccccc1-c1ccc2cnc(Nc3ccc(C4CCN(CC(N)=O)CC4)cc3)nn12)S(C)(=O)=O
> 300 °C	O=c1c2c(-c3ccccc3)n[nH]c2c2cccnc2n1-c1ccccc1
196 to 199 °C	O=C(O)Cc1c(Cl)nc(-c2ccccc2)n1Cc1ccc(O)cc1
59 to 60 °C	Cc1ccc(S(=O)(=O)OCCCC2CCN(C(=O)OCc3ccccc3)CC2)cc1
168 to 169 °C	CCOCc1nc2nccnc2c(=O)[nH]1
140 to 143 °C	Brc1ccc2cnncc2c1
102 to 104 °C	Cn1ccnc1Sc1c(Cl)cccc1[N+](=O)[O-]
144 to 145 °C	CSc1nc2ccccc2c(-c2ccccc2)c1C(=O)N(C)Cc1cc(C(F)(F)F)cc(C(F)(F)F)c1
232 to 233 °C	FC(F)(F)c1ccc2c(c1)NC(=S)c1ccccc1S2
> 275 °C	CCOC(=O)Nc1nc(C)c(-c2nc3ccccc3c(=O)n2-c2ccc(C(C)=O)cc2)s1

melting point	SMILES
> 200 °C	Cc1ccc(S(=O)(=O)N2CCC[C@H]2C(=O)N[C@@H](CCCCN)C(=O)O)cc1 (Tos-Pro-Lys-OH)
144 to 148 °C	COc1ccc2c(c1)C(=O)N(c1ccc3c(ccn3C(C)C)c1)C2
149 to 151 °C	COc1ccc(Cc2oc3c(Cl)cc(CCC(=O)O)c(O)c3c2C)cc1
170 to 175 °C	CC(=O)NC[C@H]1CN(c2ccc3c(c2)CC(C)N3C(=O)OCc2ccccc2)C(=O)O1 (stereo not given in full)
253 °C	Cc1nc(NC(=O)C2=C(O)c3ccc4ccccc4c3S(=O)(=O)N2)sc1C
78 to 79 °C	CCCCc1nnc(SCc2ccc(OC)cc2)n1Cc1ccc(OC(C(=O)O)c2ccccc2)cc1 (stereo not given)
184 °C	CCOC(=O)c1c(C(F)(F)F)nc2ccc(OC)cc2c1O
231 to 232 °C	COC(=O)C1=C(C)NC(C)=C(C(=O)OC)C1c1cccc(NC(=O)C(F)(F)F)c1
85 to 86 °C	CCN(CC)C(=O)n1ccc(S(=O)(=O)c2ccc(Cl)cc2Cl)n1
154 °C	Nc1cc(C(=O)N2CCC2)cc(C(F)(F)F)c1
176 to 178 °C	CSc1ccc(C(=O)c2cc(C)cc3c2NC(=O)C3)cc1
211 to 212 °C	O=C1CC=Cc2ncncc21
119 to 120 °C	COC(=O)c1cccc(CC(=O)Nc2cccc(/C=C/c3nc(C4CCC4)cs3)c2)c1
114 to 116 °C	O=C(CCl)Nc1cccc2[nH]ccc12
192 to 194 °C	COc1cc2ncc(C#N)c(Nc3ccc(F)c(Cl)c3)c2cc1-n1cccc1
141 to 143 °C	FC(F)(F)c1cc(OCc2ccc(-c3ccccc3-c3nnn(C(c4ccccc4)(c4ccccc4)c4ccccc4)n3)cc2)c2c(n1)CCCC2
223 to 226 °C	CONC(=O)c1cccc(-c2nc3ccccc3c(=O)o2)c1
74 °C	CCOC(=O)CCc1cnn2c(N(C)c3ccccc3)ncnc12
93 °C	COc1cc(Nc2nccc(-c3ccc(N4CCCCC4CO)nc3)n2)cc(OC)c1OC (stereo not given)
217 to 222 °C	S=C1Nc2ccc(Cl)cc2CS1
125 to 126 °C	CCc1nc(/C=C\c2cn(-c3ccccc3)nc2OCc2ccc(OCc3nc(-c4cccc(C(=O)OC)c4)oc3C)c(OC)c2)cs1
37 °C	CCCCCNC(=O)CCCCC
143 to 145 °C	CN(C)Cc1ccc(-c2nc(C(=O)Nc3nccs3)c(-c3ccc(Cl)cc3)[nH]2)cc1
355 °C	O=c1[nH]c2cc(Cl)ccc2c(O)c1-n1ccccc1=O

melting point	SMILES
136 °C	CC(SC1COC(c2ccc(C(=O)Nc3ccc(C#N)cc3F)cc2)OC1)C(O)(Cn1cncn1)c1ccc(F)cc1F (stereo not given)
196 °C	CC(=O)Nc1cc(F)ccc1C(=O)NCCN1CCC(n2c(=O)[nH]c3cc(Cl)ccc32)CC1
210 to 215 °C	CCc1nc(NC)sc1C(=O)c1ccc(N)c([N+](=O)[O-])c1
171 to 175 °C	CC(C)[C@H](NS(=O)(=O)c1ccc2c(c1)Sc1ccccc1O2)C(=O)O
60 to 62 °C	CCCCOc1ccc(-c2nc(-c3ccccc3Cl)nn2C)c(Cl)c1
224 to 226 °C	N#Cc1cc(C(F)(F)F)ccc1Oc1cccc(C(=O)O)c1
160 to 165 °C	O=C(O)CNC(=Nc1ccccc1)NC1CCCCC1
184 to 185 °C	CC(=O)Nc1ccc(C(O)CO)cn1 (stereo not given)
241 to 242 °C	Cc1c(-c2ccc(O)cc2)oc2ccccc2c1=O
235 to 237 °C	C#CCN1C(=O)c2cccc3cccc(c23)C1=O
161 to 163 °C	COc1cn(-c2ccc(-n3c(=O)ccn3C(F)F)cc2F)nc(-c2ccnn2-c2ccccc2)c1=O
151 to 154 °C	COc1ccc(C2CNC(=O)C2)cc1Br (stereo not given)
162 to 165 °C	COc1ccc(CNC(=O)c2c(-c3ccncc3)c(-c3ccc(F)cc3)nn2C)cc1
209 to 210 °C	CC(=O)N1c2ccccc2N(Cc2ccccc2)C(=O)[C@H]2CCC[C@H]21 (relative stereo)
110 °C	CCN1CCC(c2cccc(C(F)(F)F)c2)(C(C)(C)O)CC1
96 °C	Cn1c2ccccc2c2cc(CO)ccc21
146 to 148 °C	CCOC(=O)c1sc(-n2cnn(CC3CC3(F)F)c2=O)nc1C (stereo not given)
> 230 °C	CCCNC(=O)C=C1SC(Nc2c(Cl)cccc2Cl)=NC1=O
72 to 76 °C	CCO[C@@H]1[C@@H](OC)[C@H](C)O[C@@H](OC(=O)N(C(=O)CCC(=O)OC)c2ccc(-c3ncn(-c4ccc(OC(F)(F)C(F)(F)F)cc4)n3)cc2)[C@@H]1OC
198 to 200 °C	COc1cc(C=CC(=O)Nc2cnc3c(C)cc(C)cc3c2-c2ccccc2Cl)cc(OC)c1OC
112 to 114 °C	CCOC(=O)c1ccccc1OCC(O)COc1ccc(F)cc1 (stereo not given)
68 °C	CC12CCC(C1)C1(C)Oc3ccccc3C21C (stereo not given)
132 to 134 °C	O=[N+]([O-])c1ccc(-c2ncnn2-c2ccc(F)cc2)cc1
156 °C	CC1=NNC(C)=C(C(=O)NN)C1c1ccccc1 (stereo not given)

melting point	SMILES
127 to 128 °C	CSc1ncccc1NC(=O)CCCCCSc1nc2ccccc2o1
87 to 88 °C	O=S(=O)(Nc1ccc(Cl)cc1C(=NOCc1ccc(Cl)c(Cl)c1)c1ccccc1)C(F)(F)F
136 °C	NC(=O)N1CCCN(NC(=O)OCc2ccccc2)C1=O
155 to 158 °C	CS(=O)(=O)c1ccc(-c2cnn(CC(F)(F)F)c(=O)c2SCC(F)(F)F)cc1
148 to 149 °C	O=C(O)C(Cc1ccccc1)Oc1ccc(-c2ccc(-c3c(Br)oc4ccccc34)cc2)cc1 (stereo not given)
211 to 212 °C	CNC(=O)c1cccc(NC(=O)Cc2ccccc2Cl)c1
110 °C	CCCCC(=O)NC(C(=O)OCC)=C(N)SCC
97 to 102 °C	O=C(O)C1Cc2cccc(-c3ccccc3)c2C1 (stereo not given)
195 to 196 °C	CCC(O)(CC(=O)OC(C)(C)C)c1cc2n(c(=O)c1COC(C)=O)Cc1cc3ccccc3nc1-2 (stereo not given)
208 to 211 °C	CN1C(=O)N(c2c(Cl)cccc2Cl)Cc2cnc(Nc3ccc(F)cc3)nc21
195 to 197 °C	CCOC(=O)c1cn2c3c(cc(C)cc3c1=O)OCC2C (stereo not given)
258 °C	CCCn1c(=O)nc2sc3ccccc3nc-2c1=O
174 to 182 °C	CC1=C(C(=O)O)Cc2ccc(C)cc21
127 to 128 °C	O=c1c(Cl)c(N2CCOCC2)oc2ccccc12
90 °C	CCCCn1nnc(-c2cccc(-c3ccnc4c(C(=O)c5cccs5)cnn34)c2)n1
135 to 137 °C	CCOC(=O)C=C1CSC(=N)N1N
190 to 192 °C	N#Cc1cc(C(F)(F)F)ccc1Oc1ccc([N+](=O)[O-])c(C(=O)O)c1
160 to 161 °C	Cc1nnc(-c2ccc3ncn(-c4ccc(OC(F)(F)F)cc4)c3c2)o1
42 to 44 °C	CC(C)N(CCCCOc1ccc(-c2nnc(CSCCOc3ccccc3)o2)cc1)C(C)C
159 to 161 °C	COC(=O)COc1ccc(S(=O)(=O)c2ccc(O)cc2)cc1
156 to 157 °C	Cc1oc(-c2ccccc2)nc1Cc1cc2cc(/C=C/CO)ccc2o1
222 to 224 °C	COc1ccc([C@@H]2Sc3cc(Oc4ccc(F)cc4)ccc3NC(=O)[C@@H]2O)cc1F

SMILES	melting point
CCc1nccn1CC1CC2c3cccc4[nH]cc(c34)CC2N(C)C1 (stereo not given)	232 to 237 °C
CCS(=O)(=O)Nc1cc(C)cc(Cc2c[nH]cn2)c1C	167 to 169 °C
Cc1noc(-c2ncn3c2CN(C)C(=O)c2c(Cl)cccc2-3)n1	212 to 213 °C
CN1C(=O)N(c2ccc(C#N)c(C(F)(F)F)c2)C(=O)C1(C)C	158 °C
Cc1cc(Br)cc(C)c1N[N+](=O)[O-]	129 to 131 °C
CN1CC(CCCO)CC2(OCCO)c3cccc4[nH]cc(c34)CC12 (stereo not given)	212 to 215 °C
